Active and inactive are the calls of the source. The rule behind the calls is not given here.
Columns and labels:
A-431 = assay: Antiproliferative activity against human A-431 cells by MTT assay; type: functional, cell-based
A549 = assay: Antiproliferative activity against human A549 cells by MTT assay; type: functional, cell-based
MDA-MB-231 = assay: Antiproliferative activity against human MDA-MB-231 cells by MTT assay; type: functional, cell-based
MCF7 = assay: Antiproliferative activity against human MCF7 cells by MTT assay; type: functional, cell-based
PANC-1 = assay: Antiproliferative activity against human PANC-1 cells by MTT assay; type: functional, cell-based
HepG2 = assay: Antiproliferative activity against human HepG2 cells by MTT assay; type: functional, cell-based
HCT-116 = assay: Antiproliferative activity against human HCT-116 cells by MTT assay; type: functional, cell-based
NCI-H460 = assay: Antiproliferative activity against human NCI-H460 cells by MTT assay; type: functional, cell-based
NCI-H1299 = assay: Antiproliferative activity against human NCI-H1299 cells by MTT assay; type: functional, cell-based
[1] = Antiproliferative activity against human QGY-7701 cells by MTT assay; type: functional, cell-based; settings: QGY7701
BGC-823 = assay: Antiproliferative activity against human BGC-823 cells by MTT assay; type: functional, cell-based
[2] = Antiproliferative activity against human SKGT4 cells by MTT assay; type: functional, cell-based
A-375 = assay: Antiproliferative activity against human A-375 cells by MTT assay; type: functional, cell-based
U2OS = assay: Antiproliferative activity against human U2OS cells by MTT assay; type: functional, cell-based
HL-60 = assay: Antiproliferative activity against human HL-60 cells by MTT assay; type: functional, cell-based
K562 = assay: Antiproliferative activity against human K562 cells by MTT assay; type: functional, cell-based
KYSE-450 = assay: Antiproliferative activity against human KYSE-450 cells by MTT assay; type: functional, cell-based
PC-3 = assay: Antiproliferative activity against human PC-3 cells by MTT assay; type: functional, cell-based
BMSC [3] = assay: Anti-osteoporosis activity against C57BL/6J mouse BMSC cells assessed as increase in matrix mineralization of osteoblasts at 20 uM incubated for 14 days by Alizarin Red S staining based analysis; type: functional, cell-based; settings: time 14.0 day
[4] = (§1) Anti-osteoporosis activity against C57BL/6J mouse BMSC cells assessed as increase in osteogenic mineralization incubated for 14 days by Alizarin Red S staining based analysis; type: functional; settings: 336 h, time 14 day, read-out: MEC
BMSC [5] = assay: as §1; type: functional; settings: time 14.0 day
[6] = Inhibition of adipogenic differentiation in C57BL/6J mouse BMSC cells at 5 uM measured after 6 days by Oil Red O staining based light microscopy; type: functional; settings: 144 h, time 6 day
[7] = Inhibition of adipogenic differentiation in C57BL/6J mouse BMSC cells at 20 uM measured after 6 days by Oil Red O staining based light microscopy; type: functional; settings: 144 h, time 6 day
Protein smoothened = Protein smoothened (Homo sapiens, UniProt Q99835); assay: Agonist activity at SMO receptor (unknown origin)
Protein smoothened, sequence (Q99835 whole entry): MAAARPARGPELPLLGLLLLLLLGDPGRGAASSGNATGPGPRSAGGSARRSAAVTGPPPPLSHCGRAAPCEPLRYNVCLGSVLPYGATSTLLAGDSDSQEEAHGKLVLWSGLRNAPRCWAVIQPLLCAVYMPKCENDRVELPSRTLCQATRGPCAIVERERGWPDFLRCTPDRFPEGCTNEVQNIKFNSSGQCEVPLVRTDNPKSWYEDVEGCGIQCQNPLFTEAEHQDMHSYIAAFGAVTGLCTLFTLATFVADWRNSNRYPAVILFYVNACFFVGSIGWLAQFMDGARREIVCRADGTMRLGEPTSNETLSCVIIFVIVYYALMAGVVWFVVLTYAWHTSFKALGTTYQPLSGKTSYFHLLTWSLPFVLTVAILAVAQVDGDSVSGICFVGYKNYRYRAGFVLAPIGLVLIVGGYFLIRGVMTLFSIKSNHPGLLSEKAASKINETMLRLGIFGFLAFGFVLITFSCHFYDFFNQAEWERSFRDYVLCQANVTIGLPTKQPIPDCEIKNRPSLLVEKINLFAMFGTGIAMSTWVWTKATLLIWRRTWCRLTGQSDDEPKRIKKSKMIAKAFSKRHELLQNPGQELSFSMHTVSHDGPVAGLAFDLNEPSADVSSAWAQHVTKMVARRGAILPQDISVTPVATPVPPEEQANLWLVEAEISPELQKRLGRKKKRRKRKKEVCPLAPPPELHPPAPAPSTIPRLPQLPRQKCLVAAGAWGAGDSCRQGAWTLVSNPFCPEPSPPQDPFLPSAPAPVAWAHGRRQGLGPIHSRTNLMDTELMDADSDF

IC50 (A-431)	IC50 (A549)	IC50 (MDA-MB-231)	IC50 (MCF7)	IC50 (PANC-1)	IC50 (HepG2)	IC50 (HCT-116)	IC50 (NCI-H460)	IC50 (NCI-H1299)	IC50 (BGC-823)	IC50 (A-375)	IC50 (U2OS)	IC50 (HL-60)	IC50 (K562)	IC50 (PC-3)	SMILES	IC50 [1]	IC50 [2]	IC50 (KYSE-450)	Activity (BMSC [3])	minimal effective concentration [4]	other results
> 20 µM	> 20 µM	> 20 µM	> 20 µM	> 20 µM	> 20 µM	> 20 µM	> 20 µM	> 20 µM	> 20 µM	> 20 µM	> 20 µM	> 20 µM	> 20 µM	> 20 µM	C/C(=C\[C@@H](O)[C@H](C)O)[C@H]1CC[C@H]2C3=CC(=O)[C@H]4CC(=CC[C@H](O)C4)[C@H]3CC[C@]12C [NEOCYCLOCITRINOL C]	> 20 µM	> 20 µM	> 20 µM	Active	5 µM	Activity (BMSC [5]): Dose-Dependent Effect; inhibition at 5 µM [6]: 78%
> 20 µM	> 20 µM	> 20 µM	> 20 µM	> 20 µM	> 20 µM	> 20 µM	> 20 µM	> 20 µM	> 20 µM	> 20 µM	> 20 µM	> 20 µM	> 20 µM	> 20 µM	C/C(=C/[C@H](O)[C@H](C)O)[C@H]1CC[C@H]2C3=CC(=O)[C@H]4CC(=CC[C@H](O)C4)[C@H]3CC[C@]12C	> 20 µM	> 20 µM	> 20 µM	Active	20 µM	Activity (BMSC [5]): Dose-Dependent Effect; inhibition at 20 µM [7]: 65%
															c1ccc2c(Oc3nc(Nc4ccc(N5CCOCC5)cc4)c4ncn(C5CCCCC5)c4n3)cccc2c1 [PURMORPHAMINE]						EC50 (Protein smoothened): 1 µM
> 20 µM	> 20 µM	> 20 µM	> 20 µM	> 20 µM	> 20 µM	> 20 µM	> 20 µM	> 20 µM	> 20 µM	> 20 µM	> 20 µM	> 20 µM	> 20 µM	> 20 µM	COC(/C=C(\C)[C@H]1CC[C@H]2C3=CC(=O)[C@H]4CC(=CC[C@H](O)C4)[C@H]3CC[C@]12C)C(C)O (stereo partly drawn)	> 20 µM	> 20 µM	> 20 µM			
